“And” between values parts separate entries of the source, which are not always exact repeats. Equal values may be shown once. Numbers after ± are expanded uncertainties.

The nature of data set [1]: Molar enthalpy of transition or fusion. The note with it: DSC.
For data set [2] the following is noted: DTA; for Triple point temperature: Crystal 2.

`OCCCCCCO` [1,6-hexanediol]: the “Molar enthalpy of transition or fusion” value in data set [1] (Crystal) turned out to be 6.31 ± 0.143 kcal/mol. Further, the Normal melting temperature in data set [2] (Crystal) came to 41.6 ± 0.6 °C.

Take `OCCCCCCCO` [1,7-heptanediol]: the “Molar enthalpy of transition or fusion” value in data set [1] (Crystal) was determined as 6.29 ± 0.215 kcal/mol. For the same compound, in data set [2] (Crystal), the Normal melting temperature worked out at 17.4 ± 4 °C.

Regarding `OCCCCCCCCO` [1,8-octanediol], the “Molar enthalpy of transition or fusion” value in data set [1] (Crystal) worked out at 8.68 ± 0.191 kcal/mol. The Normal melting temperature in data set [2] (Crystal) amounted to 58.5 ± 0.6 °C.

Turning to `OCCCCCCCCCO` [1,9-nonanediol], the “Molar enthalpy of transition or fusion” value in data set [1] (Crystal) stood at 8.77 ± 0.191 kcal/mol. In addition, in data set [2] (Crystal), the Normal melting temperature was 45.6 ± 0.6 °C.

Turning to `OCCCCCCCCCCO` [1,10-decanediol], in data set [1] (Crystal), the “Molar enthalpy of transition or fusion” value was 10.8 ± 0.239 kcal/mol. For the same compound, the Normal melting temperature in data set [2] (Crystal) was 72.7 ± 0.7 °C.

Turning to `OCCCCCCCCCCCO` [1,11-undecanediol], the “Molar enthalpy of transition or fusion” value in data set [1] (Crystal) turned out to be 11 ± 0.239 kcal/mol. For the same compound, the Normal melting temperature in data set [2] (Crystal) is 61.0 ± 0.6 °C.

`OCCCCCCCCCCCCO` [1,12-dihydroxydodecane]: the “Molar enthalpy of transition or fusion” value in data set [1] (Crystal) was determined as 13 ± 0.263 kcal/mol. In data set [2] (Crystal), the Normal melting temperature came to 79.8 ± 0.7 °C.

Regarding `OCCCCCCCCCCCCCO` [1,13-tridecanediol], in data set [1] (Crystal 2), the “Molar enthalpy of transition or fusion” value worked out at 13.1 ± 0.287 kcal/mol. Moreover, in data set [2] (Crystal 1), the Normal melting temperature amounted to 77.2 ± 0.7 °C. Moreover, the Triple point temperature in data set [2] came out at 339.3 ± 0.7 K.

With `OCCCCCCCCCCCCCCO` [1,14-tetradecanediol], the “Molar enthalpy of transition or fusion” value in data set [1] (Crystal) was determined as 15.2 ± 0.311 kcal/mol. For the same compound, in data set [2] (Crystal), the Normal melting temperature was determined as 86.1 ± 0.7 °C.

With `OCCCCCCCCCCCCCCCO` [1,15-pentadecanediol], the “Molar enthalpy of transition or fusion” value in data set [1] (Crystal 2) is 15.6 kcal/mol and 9.15 kcal/mol. The Normal melting temperature in data set [2] (Crystal 1) is 88.1 ± 0.7 °C. Moreover, in data set [2], the Triple point temperature came to 349 ± 0.7 K.

On to `OCCCCCCCCCCCCCCCCO` [1,16-dihydroxyhexadecane], for which the “Molar enthalpy of transition or fusion” value in data set [1] (Crystal 2) was 17.4 ± 0.359 kcal/mol. In addition, in data set [2] (Crystal 1), the Normal melting temperature was determined as 93 ± 0.7 °C. For the same compound, the Triple point temperature in data set [2] is 364.1 ± 0.7 K.

(Values after the NIST ThermoML archive (doi:10.1016/j.jct.2013.08.019).)
